The structures appear in SMILES notation.

One experiment has as its system A-375. The experiment in a line: Cytotoxicity against human A375 cells expressing B-RafV600E mutant. Format: functional, cell-based.
In experiment [1] the target is Serine/threonine-protein kinase B-raf (Homo sapiens, UniProt P15056). The experiment in a line: Inhibition of human recombinant B-Raf expressed in Sf9 cells assessed as inhibition of Mek1 phosphorylation.
A further experiment relates to HT-29. The experiment in a line: Cytotoxicity against human HT-29 cells expressing B-RafV600E mutant. Format: functional, cell-based.
A further experiment relates to Caco-2. The experiment in a line: Cytotoxicity against human Caco-2 cells expressing wild type B-Raf. Format: functional, cell-based.
Another experiment addresses Aurora kinase B (Homo sapiens, UniProt Q96GD4). The experiment in a line: Inhibition of Aurora B.
In experiment [2] the target is Cyclin-dependent kinase 1 (Homo sapiens, UniProt P06493). The experiment in a line: Inhibition of CDK1.
Experiment [3] has as its target Cyclin-dependent kinase 2 (Homo sapiens, UniProt P24941). The experiment in a line: Inhibition of CDK2.
Experiment [4] has as its target Serine/threonine-protein kinase Chk1 (Homo sapiens, UniProt O14757). The experiment in a line: Inhibition of CHK1.
Experiment [5] has as its target Casein kinase I isoform gamma-1 (Homo sapiens, UniProt Q9HCP0). In words: Inhibition of CK1gamma1.
The target in experiment [6] is Mitogen-activated protein kinase 1 (Homo sapiens, UniProt P28482). The experiment in a line: Inhibition of ERK2.
In experiment [7] the target is Tyrosine-protein kinase Fyn (Homo sapiens, UniProt P06241). The experiment in a line: Inhibition of FYN.
For experiment [8], the target named is Mitogen-activated protein kinase kinase kinase kinase 2 (Homo sapiens, UniProt Q12851). The experiment in a line: Inhibition of GCK.
The target of experiment [9] is Tyrosine-protein kinase HCK (Homo sapiens, UniProt P08631). The experiment in a line: Inhibition of HCK.
Experiment [10] concerns the target Inhibitor of nuclear factor kappa-B kinase subunit alpha (Homo sapiens, UniProt O15111). The experiment in a line: Inhibition of IKKalpha.
Experiment [11] concerns the target Inhibitor of nuclear factor kappa-B kinase subunit beta (Homo sapiens, UniProt O14920). In words: Inhibition of IKK-beta.
The target of experiment [12] is Tyrosine-protein kinase Lyn (Homo sapiens, UniProt P07948). The experiment in a line: Inhibition of LYN.
For experiment [13], the target named is Hepatocyte growth factor receptor (Homo sapiens, UniProt P08581). The experiment in a line: Inhibition of Met.
The target in experiment [14] is MAP kinase-activated protein kinase 2 (Homo sapiens, UniProt P49137). The experiment in a line: Inhibition of MK2.
Experiment [15] deals with Platelet-derived growth factor receptor alpha (Homo sapiens, UniProt P16234). In words: Inhibition of PDGFRalpha.
Experiment [16] is described as follows: Inhibition of PKA.
The target in experiment [17] is Protein kinase C alpha type (Homo sapiens, UniProt P17252). The experiment in a line: Inhibition of PKCalpha.
The target of experiment [18] is Protein kinase C beta type (Homo sapiens, UniProt P05771). The experiment in a line: Inhibition of PKCbeta.
Experiment [19] deals with Rho-associated protein kinase 1 (Homo sapiens, UniProt Q13464). The experiment in a line: Inhibition of ROCK1.
In experiment [20] the target is Ribosomal protein S6 kinase alpha-1 (Homo sapiens, UniProt Q15418). In words: Inhibition of RSk1.
For experiment [21], the target named is Proto-oncogene tyrosine-protein kinase Src (Homo sapiens, UniProt P12931). In words: Inhibition of SRC.
A short description of experiment [22]: Inhibition of VEGFR2.
Experiment [23] concerns the target Mitogen-activated protein kinase 14 (Homo sapiens, UniProt Q16539). In words: Inhibition of p38alpha.
In experiment [24] the target is Tyrosine-protein kinase ABL1 (Homo sapiens, UniProt P00519).

Serine/threonine-protein kinase B-raf, sequence (P15056 whole entry): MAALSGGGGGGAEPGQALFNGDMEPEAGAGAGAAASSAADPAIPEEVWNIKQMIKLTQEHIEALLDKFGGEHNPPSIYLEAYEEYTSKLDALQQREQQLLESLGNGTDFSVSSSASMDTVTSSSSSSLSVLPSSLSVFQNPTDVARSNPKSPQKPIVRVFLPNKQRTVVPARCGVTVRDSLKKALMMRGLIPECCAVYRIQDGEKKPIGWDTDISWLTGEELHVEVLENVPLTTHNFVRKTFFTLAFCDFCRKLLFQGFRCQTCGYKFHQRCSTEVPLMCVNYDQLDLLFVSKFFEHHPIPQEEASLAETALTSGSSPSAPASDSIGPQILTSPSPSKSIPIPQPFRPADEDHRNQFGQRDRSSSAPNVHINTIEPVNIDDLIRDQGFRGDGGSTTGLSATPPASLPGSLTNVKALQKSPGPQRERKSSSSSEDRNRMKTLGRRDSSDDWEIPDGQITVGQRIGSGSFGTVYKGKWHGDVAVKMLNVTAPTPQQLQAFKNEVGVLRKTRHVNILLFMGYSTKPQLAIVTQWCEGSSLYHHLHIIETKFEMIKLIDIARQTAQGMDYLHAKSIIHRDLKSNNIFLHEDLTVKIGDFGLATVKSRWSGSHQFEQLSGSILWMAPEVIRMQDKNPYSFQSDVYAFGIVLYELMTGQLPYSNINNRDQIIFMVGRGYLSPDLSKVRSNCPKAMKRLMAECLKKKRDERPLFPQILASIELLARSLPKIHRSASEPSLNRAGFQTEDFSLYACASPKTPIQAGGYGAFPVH
Tyrosine-protein kinase Fyn, sequence (P06241 whole entry): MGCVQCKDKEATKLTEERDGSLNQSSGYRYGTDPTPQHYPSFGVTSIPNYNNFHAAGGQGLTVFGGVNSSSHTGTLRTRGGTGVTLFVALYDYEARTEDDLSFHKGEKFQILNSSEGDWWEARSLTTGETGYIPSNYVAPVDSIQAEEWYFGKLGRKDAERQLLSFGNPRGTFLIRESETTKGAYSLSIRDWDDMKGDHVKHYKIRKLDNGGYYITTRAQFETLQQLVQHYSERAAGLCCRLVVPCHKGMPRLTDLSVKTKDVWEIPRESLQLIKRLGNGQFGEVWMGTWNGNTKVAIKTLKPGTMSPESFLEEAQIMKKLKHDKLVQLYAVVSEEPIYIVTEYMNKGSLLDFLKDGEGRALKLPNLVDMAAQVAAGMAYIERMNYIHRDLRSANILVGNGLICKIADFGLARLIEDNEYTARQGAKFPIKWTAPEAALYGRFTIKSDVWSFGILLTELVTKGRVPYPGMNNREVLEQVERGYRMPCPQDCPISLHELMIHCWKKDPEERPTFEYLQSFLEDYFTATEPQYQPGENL
Mitogen-activated protein kinase 1, sequence (P28482 whole entry): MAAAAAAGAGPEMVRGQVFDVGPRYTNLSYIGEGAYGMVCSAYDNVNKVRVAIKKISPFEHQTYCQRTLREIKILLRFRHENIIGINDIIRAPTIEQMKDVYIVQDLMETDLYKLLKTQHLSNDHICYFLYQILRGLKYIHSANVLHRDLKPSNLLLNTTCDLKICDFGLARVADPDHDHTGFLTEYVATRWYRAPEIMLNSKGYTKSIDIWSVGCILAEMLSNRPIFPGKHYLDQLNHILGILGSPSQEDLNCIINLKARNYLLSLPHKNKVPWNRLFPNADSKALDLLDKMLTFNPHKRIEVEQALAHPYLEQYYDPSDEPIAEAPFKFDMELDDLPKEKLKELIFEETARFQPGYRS
Tyrosine-protein kinase HCK, sequence (P08631 whole entry): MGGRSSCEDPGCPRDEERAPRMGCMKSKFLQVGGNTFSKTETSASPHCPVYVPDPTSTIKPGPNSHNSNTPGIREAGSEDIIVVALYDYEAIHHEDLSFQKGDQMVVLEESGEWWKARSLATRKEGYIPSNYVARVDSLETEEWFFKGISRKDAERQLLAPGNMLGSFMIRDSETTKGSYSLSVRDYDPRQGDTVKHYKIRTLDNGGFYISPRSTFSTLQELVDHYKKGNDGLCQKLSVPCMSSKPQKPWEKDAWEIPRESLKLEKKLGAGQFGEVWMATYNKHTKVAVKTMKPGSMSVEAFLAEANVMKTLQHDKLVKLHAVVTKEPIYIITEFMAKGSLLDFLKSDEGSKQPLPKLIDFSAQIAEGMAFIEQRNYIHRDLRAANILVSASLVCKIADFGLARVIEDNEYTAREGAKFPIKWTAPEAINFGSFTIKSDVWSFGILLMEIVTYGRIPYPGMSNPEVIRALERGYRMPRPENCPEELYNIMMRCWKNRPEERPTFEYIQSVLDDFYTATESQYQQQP
MAP kinase-activated protein kinase 2, sequence (P49137 whole entry): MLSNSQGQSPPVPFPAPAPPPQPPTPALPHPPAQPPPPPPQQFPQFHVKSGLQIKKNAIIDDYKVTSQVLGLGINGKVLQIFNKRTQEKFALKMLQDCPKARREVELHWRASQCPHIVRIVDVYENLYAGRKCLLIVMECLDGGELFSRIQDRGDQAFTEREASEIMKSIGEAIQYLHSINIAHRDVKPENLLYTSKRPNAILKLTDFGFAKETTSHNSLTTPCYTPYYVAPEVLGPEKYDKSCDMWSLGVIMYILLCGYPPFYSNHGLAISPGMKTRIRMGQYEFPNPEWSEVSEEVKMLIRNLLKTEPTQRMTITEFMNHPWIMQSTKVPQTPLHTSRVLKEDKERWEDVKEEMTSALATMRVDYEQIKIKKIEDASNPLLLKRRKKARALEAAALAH
Inhibitor of nuclear factor kappa-B kinase subunit beta, sequence (O14920 whole entry): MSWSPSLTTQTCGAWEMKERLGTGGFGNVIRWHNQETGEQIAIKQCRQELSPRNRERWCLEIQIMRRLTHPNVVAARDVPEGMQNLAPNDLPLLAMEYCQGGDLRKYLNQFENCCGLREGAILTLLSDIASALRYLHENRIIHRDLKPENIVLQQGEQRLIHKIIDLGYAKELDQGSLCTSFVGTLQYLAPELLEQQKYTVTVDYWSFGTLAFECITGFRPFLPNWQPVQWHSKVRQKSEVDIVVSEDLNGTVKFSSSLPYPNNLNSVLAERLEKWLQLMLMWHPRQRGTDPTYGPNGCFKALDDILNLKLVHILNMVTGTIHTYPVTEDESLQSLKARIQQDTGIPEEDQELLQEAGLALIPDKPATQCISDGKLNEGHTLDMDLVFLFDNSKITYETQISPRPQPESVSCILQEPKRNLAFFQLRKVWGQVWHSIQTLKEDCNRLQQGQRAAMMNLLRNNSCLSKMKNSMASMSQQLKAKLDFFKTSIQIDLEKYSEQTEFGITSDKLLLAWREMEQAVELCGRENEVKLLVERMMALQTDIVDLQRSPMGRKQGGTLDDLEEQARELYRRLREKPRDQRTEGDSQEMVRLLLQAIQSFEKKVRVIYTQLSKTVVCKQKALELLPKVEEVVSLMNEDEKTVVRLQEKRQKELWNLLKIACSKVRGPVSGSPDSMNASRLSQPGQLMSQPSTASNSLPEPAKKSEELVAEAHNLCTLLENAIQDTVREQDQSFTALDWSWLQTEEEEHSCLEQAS
Casein kinase I isoform gamma-1, sequence (Q9HCP0 whole entry, canonical isoform): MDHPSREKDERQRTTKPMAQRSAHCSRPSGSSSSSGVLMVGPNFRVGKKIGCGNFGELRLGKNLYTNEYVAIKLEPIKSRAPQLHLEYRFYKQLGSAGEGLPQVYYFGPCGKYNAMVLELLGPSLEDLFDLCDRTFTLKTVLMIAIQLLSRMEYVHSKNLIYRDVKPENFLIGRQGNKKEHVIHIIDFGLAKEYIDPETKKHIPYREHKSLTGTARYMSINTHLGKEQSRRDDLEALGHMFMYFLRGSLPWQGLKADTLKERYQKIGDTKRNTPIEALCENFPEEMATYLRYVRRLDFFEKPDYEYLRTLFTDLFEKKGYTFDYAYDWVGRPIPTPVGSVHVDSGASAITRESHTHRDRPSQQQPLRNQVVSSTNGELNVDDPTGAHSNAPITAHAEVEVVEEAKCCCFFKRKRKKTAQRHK
Proto-oncogene tyrosine-protein kinase Src, sequence (P12931 2-536 limits assumed): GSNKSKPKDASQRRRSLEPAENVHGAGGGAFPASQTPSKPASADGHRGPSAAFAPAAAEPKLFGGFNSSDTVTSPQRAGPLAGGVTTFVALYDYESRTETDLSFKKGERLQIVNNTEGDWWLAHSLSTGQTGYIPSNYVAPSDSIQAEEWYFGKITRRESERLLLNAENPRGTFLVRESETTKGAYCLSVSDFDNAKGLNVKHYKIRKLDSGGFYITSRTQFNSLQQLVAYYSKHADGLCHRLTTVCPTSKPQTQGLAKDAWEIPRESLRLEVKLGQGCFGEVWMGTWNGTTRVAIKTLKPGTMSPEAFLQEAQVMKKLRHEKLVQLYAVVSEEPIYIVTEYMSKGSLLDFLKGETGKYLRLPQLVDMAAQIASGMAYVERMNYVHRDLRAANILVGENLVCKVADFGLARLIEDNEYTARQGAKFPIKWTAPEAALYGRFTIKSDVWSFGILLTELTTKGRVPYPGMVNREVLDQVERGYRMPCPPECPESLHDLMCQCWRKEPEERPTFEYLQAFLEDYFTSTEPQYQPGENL

By IC50 is commonly meant the concentration needed to halve the response being measured. For the compound `CC(=O)N1C[C@@H]2C[C@H]1CN2c1ccc(-c2ccnc3c(-c4ccc(F)c(O)c4)c(-c4ccncc4)nn23)cc1`, it took 210 nM to reach half-maximal inhibition with A-375 (IC50).

As to `COc1cc(-c2c(-c3ccncc3)nn3c(-c4ccc(N5C[C@@H]6C[C@H]5CN6C)cc4C)ccnc23)ccc1F`, the IC50 in experiment [1] came to 1 nM; in the experiment on A-375 it was 933 nM.

`COc1cc(-c2c(-c3ccncc3)nn3c(-c4ccc(N5C[C@@H]6C[C@H]5CN6)cc4)ccnc23)ccc1F` had an IC50 in the experiment with A-375 of 1200 nM.

In the case of `CN1C2CCC1CN(c1ccc(-c3ccnc4c(-c5cccc(O)c5)c(-c5ccncc5)nn34)cc1)C2`, the IC50 worked out at 0.9 nM in experiment [1], 300 nM in the experiment on A-375, 270 nM with HT-29 and 1300 nM in the experiment with Caco-2.

In the case of `COc1cccc(-c2c(-c3ccncc3)nn3c(-c4ccc(N5C[C@@H]6C[C@H]5CN6C)cc4)ccnc23)c1`, in the experiment with A-375, half-maximal inhibition (IC50) required 760 nM.

On to `COc1cc(-c2c(-c3ccncc3)nn3c(-c4ccc(N5C[C@@H]6C[C@H]5CN6C)cc4)ccnc23)ccc1F`, for which the IC50 with A-375 came to 6000 nM.

For the compound `CCN1C[C@@H]2C[C@H]1CN2c1ccc(-c2ccnc3c(-c4ccc(F)c(O)c4)c(-c4ccncc4)nn23)cc1`, the figures for the IC50 (in [1]; in the experiment with A-375) were 0.51 nM and 200 nM, respectively.

As for `COc1cccc(-c2c(-c3ccncc3)nn3c(-c4ccc(N5C[C@@H]6C[C@H]5CN6)cc4)ccnc23)c1`, the IC50 in [1] was 12 nM; with A-375, 1100 nM.

Consider `COc1cccc(-c2c(-c3ccncc3)nn3c(-c4ccc(N5C[C@@H]6C[C@H]5CN6)cc4F)ccnc23)c1`, for which the values for the IC50 (in [1]; in the experiment on A-375) were 0.44 nM and 504 nM, respectively.

On to `COc1cccc(-c2c(-c3ccncc3)nn3c(-c4ccc(N5CC6CCC(C5)N6C)cc4)ccnc23)c1`, for which the IC50 in experiment [1] was 17 nM; with A-375, 1900 nM.

Turning to `CN1C2CCC1CN(c1ccc(-c3ccnc4c(-c5ccc(Cl)c(O)c5)c(-c5ccncc5)nn34)cc1)C2`, the results for the IC50 (in experiment [1]; with A-375) were less than 0.32 nM and 170 nM, respectively.

Take `CN1C[C@@H]2C[C@H]1CN2c1ccc(-c2ccnc3c(-c4cccc(O)c4)c(-c4ccncc4)nn23)c(Cl)c1`: the figures for the IC50 (in experiment [1]; with A-375) were less than 0.32 nM and less than 10 nM, respectively.

On to `CN1C[C@@H]2C[C@H]1CN2c1ccc(-c2ccnc3c(-c4ccc(F)c(O)c4)c(-c4ccncc4)nn23)cc1`, for which the IC50 was less than 0.32 nM in experiment [1] and 76 nM with A-375.

As to `Cc1cc(N2C[C@@H]3C[C@H]2CN3C)ccc1-c1ccnc2c(-c3ccc(F)c(O)c3)c(-c3ccncc3)nn12`, the IC50 in experiment [1] is less than 0.32 nM; in the experiment with A-375 it was 15 nM.

`Oc1cccc(-c2c(-c3ccncc3)nn3c(-c4ccc(N[C@H]5CN6CCC5CC6)cc4)ccnc23)c1`: the IC50 in [1] amounted to 1 nM; with A-375 it was 385 nM.

On to `Cc1cc(N2C[C@@H]3C[C@H]2CN3C)ccc1-c1ccnc2c(-c3cccc(O)c3)c(-c3ccncc3)nn12`, for which the figures for the IC50 (in [1]; with A-375) were less than 0.32 nM and 31 nM, respectively.

Turning to `Oc1cccc(-c2c(-c3ccncc3)nn3c(-c4ccc(N5C[C@@H]6C[C@H]5CN6)cc4)ccnc23)c1`, the IC50 was found to be 0.49 nM in experiment [1] and 300 nM with A-375.

Take `Cc1cc(N2C[C@@H]3C[C@H]2CN3)ccc1-c1ccnc2c(-c3cccc(O)c3)c(-c3ccncc3)nn12`: the IC50 with A-375 amounted to 65 nM.

As for `CN1C[C@@H]2C[C@H]1CN2c1ccc(-c2ccnc3c(-c4cccc(O)c4)c(-c4ccncc4)nn23)c(F)c1`, the IC50 is less than 0.32 nM in experiment [1] and 12 nM with A-375.

With `Oc1cccc(-c2c(-c3ccncc3)nn3c(-c4ccc(N[C@@H]5CN6CCC5CC6)cc4)ccnc23)c1`, the IC50 in experiment [1] came to 1.5 nM; in the experiment on A-375, 370 nM.

With `CN1C[C@@H]2C[C@H]1CN2c1ccc(-c2ccnc3c(-c4cccc(O)c4)c(-c4ccncc4)nn23)cc1`, the IC50 in experiment [1] came to 0.38 nM; with A-375, 77 nM; on Aurora kinase B, 25.5 µM; in [2], 28.4 µM; in experiment [3] it was 26.4 µM; in experiment [4] it was 18.6 µM. The IC50 in experiment [5] is 9.51 µM; in experiment [6], more than 50 µM; in experiment [7], 1940 nM; in [8], 4.1 µM; in experiment [9], 1240 nM; in experiment [10] it was more than 50 µM. The IC50 was more than 50 µM in [11]; 1760 nM in experiment [12]; 3.1 µM in [13]; 17.1 µM in experiment [14]; 6.56 µM in experiment [15]; 1790 nM in experiment [16]. The IC50 in [17] came out at 2460 nM; in [18], 119 nM; in experiment [19] it was 17.6 µM; in experiment [20] it was 9.71 µM; in [21], 675 nM; in experiment [22], 222 nM. Moreover, the IC50 in [23] amounted to 69 nM; in experiment [24], 563 nM.

Take `COc1cc(-c2c(-c3ccncc3)nn3c(-c4ccc(N5CC6CCC(C5)N6C)cc4)ccnc23)ccc1Cl`: the IC50 was found to be 9.7 nM in experiment [1] and 630 nM in the experiment on A-375.

In the case of `Oc1cccc(-c2c(-c3ccncc3)nn3c(-c4ccc(NCC56CCN(CC5)CC6)cc4)ccnc23)c1`, the half-inhibitory concentration (IC50) in [1] turned out to be 2 nM; with A-375, 930 nM.

Take `Oc1cccc(-c2c(-c3ccncc3)nn3c(-c4ccc(N5C[C@@H]6C[C@H]5CN6)cc4F)ccnc23)c1`: the IC50 is less than 0.32 nM in [1] and 23 nM with A-375.

For `Oc1cccc(-c2c(-c3ccncc3)nn3c(-c4ccc(N5C[C@@H]6C[C@H]5CN6)cc4Cl)ccnc23)c1`, the values for the IC50 (in experiment [1]; in the experiment with A-375) were less than 0.32 nM and 16 nM, respectively.

Regarding `Oc1cc(-c2c(-c3ccncc3)nn3c(-c4ccc(N5C[C@@H]6C[C@H]5CN6)cc4)ccnc23)ccc1F`, the figures for the IC50 (in experiment [1]; in the experiment with A-375) were less than 0.32 nM and 150 nM, respectively.

Regarding `CCOC(=O)c1cnn2c(-c3cccc(NC(=O)c4cccc(C(F)(F)F)c4)c3)ccnc12`, in [1], the IC50 worked out at 1500 nM.

(Values after ChEMBL document CHEMBL1154392 (Bioorg Med Chem Lett, 2009).)
